This note sets out measurements from US20230042881A1, “MODULATORS OF INTEGRATED STRESS RESPONSE PATHWAY” (Praxis Biotech LLC, priority 2021, published 2023).

For assay [1], the system named is ATF4. Description: ATF4 expression inhibition assay (ATF4 5′UTR luciferase reporter, thapsigargin-stressed). In kind it is cell-based. Particulars: Homo sapiens, HEK-293T, read-out: ATF4 inhibition. On the procedure:
The ATF4 reporter was prepared by fusing the human full length 5′UTR of ATF4 (NCBI Accession No. BC022088.2) upstream of the firefly luciferase coding sequence lacking the initiator methionine. The fused sequence was cloned into pLenti-EF1a-C-Myc-DDK-IRES-Puro cloning vector (Origen #PS100085) using standard methods.
HEK293T cells carrying the ATF4 luciferase reporter were plated on 96-well plates (Nunc) at 10,000 cells per well. Cells were treated two days after seeding with 100 nM thapsigargin (Tg) (Sigma-Aldrich #T9033) in the presence of different concentrations of selected compounds ranging from 0.1 nM to […]. Cells without treatment or cells treated with Tg alone were used as controls. Assay plates containing cells were incubated for 3 hours at 37° C.
Luciferase reactions were performed using Luciferase Assay System (Promega #E1501) as specified by the manufacturer. Luminescence was read with an integration time of 1 s and a gain of 110 using a Cytation-5 multi-mode microplate reader (BioTek).

Assay [2] deals with Chinese hamster ovary (CHO) cells. In words: Protein synthesis assay (puromycin incorporation, Western blot). In kind it is cell-based. Particulars: Cricetulus griseus, read-out: % Protein synthesis relative to untreated (1 μM test compound). The protocol: Chinese hamster ovary (CHO) cells were maintained at 37° C. and 5% CO2 in Dulbecco's Modified Eagle's Media (DMEM) supplemented with 10% fetal bovine serum, 2 mM L-glutamine, 100 U/ml penicillin, and 100 μg/ml streptomycin. After reaching 80% of confluence, cells were detached and seeded on 6 well plates in complete media, allowed to recover overnight and treated for 2 hours with 1 μM of the test compound (to assess protein synthesis levels in unstressed condition), or for 2 hours with 300 nM Tg in the presence of 1 μM of the test compound (to assess the recovery of protein synthesis in a stressed condition). Cells with Tg alone were used as controls.
After the 2 hours treatments, media were replaced by adding 10 μg/ml puromycin (Sigma Aldrich #P8833) in complete media for 30 min. Media were removed and cells were lysed with SDS-PAGE lysis buffer. Lysates were transferred to 1.5 ml tubes and sonicated for 3 min and total protein amount were quantified using BCA Protein Assay Kit (Pierce). Equal amount of protein (30 μg) was loaded on SDS-PAGE gels.
A HRP-conjugated secondary antibody (Rockland) was employed to detect immune-reactive bands using enhanced chemiluminescence (ECL Western Blotting Substrate, Pierce). Quantification of protein bands was done by densitometry using ImageJ software.
The percentage levels were normalized to the media alone condition, which correspond to 100% protein synthesis. […]

[3] abbreviates: HEK293T cells carrying ATF4 luciferase reporter, 100 nM thapsigargin (Tg), 3 hours at 37° C.
The mark [4] stands for this setting: unstressed CHO cells (without Tg), 2 hours, 1 μM test compound, media alone = 100%.

Each structure is given as a SMILES string. Where two headings read alike, the source gives them in different places. Where only a bound is given, the exact number is not on record here.

Consider `O=C(COc1ccc(Cl)c(F)c1)N[C@H]1CC[C@H](C(=O)Nc2nc3cc(Cl)ccc3o2)CC1` [Compound 13, trans-4-(2-(4-chloro-3-fluorophenoxy)acetamido)-N-(5-chlorobenzo[d]oxazol-2-yl)cyclohexane-1-carboxamide], for which, in assay [1] (3 h), the IC50 lay within 10 to 100 nM. Also, the activity at 1 µM in assay [2] (CHO, 2 h) is 104%.
For `O=C(N[C@H]1CC[C@H](C(=O)NCC2CNc3cc(Cl)ccc3O2)CC1)c1ccc2cc(Cl)ccc2n1` (stereo partly drawn) [Compound 71, trans-6-chloro-N-(4-(((6-chloro-3,4-dihydro-2H-benzo[b][1,4]oxazin-2-yl)methyl)carbamoyl)cyclohexyl)quinoline-2-carboxamide], in assay [1] (setting [3]), the IC50 is < 10 nM. Moreover, in assay [2] (setting [4]), the activity at 1 µM stood at 174%.
Regarding `O=C(COc1ccc(Cl)c(F)c1)N[C@H]1CC[C@H](C(=O)Nc2nc3cc(Cl)ccc3s2)CC1` [Compound 14, trans-4-(2-(4-chloro-3-fluorophenoxy)acetamido)-N-(5-chlorobenzo[d]thiazol-2-yl)cyclohexane-1-carboxamide], in assay [1] (setting [3]), the IC50 is < 10 nM. Also, the activity at 1 µM in assay [2] (setting [4]) turned out to be 105%.
The corresponding values for `O=C(N[C@H]1CC[C@H](C(=O)NCc2cc3cc(Cl)ccc3o2)CC1)c1cc2cc(Cl)ccc2o1` [Compound 47, 5-chloro-N-(trans-4-(((5-chlorobenzofuran-2-yl)methyl)carbamoyl)cyclohexyl)benzofuran-2-carboxamide] are < 10 nM and 103%.
The corresponding values for `O=C(COc1ccc(Cl)c(F)c1)NN1CCC(C(=O)NCC2CNc3cc(Cl)ccc3O2)CC1` (centres unmarked) [Compound 68, N-((6-chloro-3,4-dihydro-2H-benzo[b][1,4]oxazin-2-yl)methyl)-1-(2-(4-chloro-3-fluorophenoxy)acetamido)piperidine-4-carboxamide] are < 10 nM and 98.3%.
Take `O=C(Nc1ccc2cc(Cl)ccc2n1)C1CCN(CCCOc2ccc(Cl)c(F)c2)CC1` [Compound 10, 1-(3-(4-chloro-3-fluorophenoxy)propyl)-N-(6-chloroquinolin-2-yl)piperidine-4-carboxamide]: the IC50 in assay [1] (setting [3]) is 10 to 100 nM. Besides, the activity at 1 µM in assay [2] (setting [4]) came to 153%.
The like results for `O=C(NN1CCC(C(=O)NCc2cc3cc(Cl)ccc3o2)CC1)c1ccc2cc(Cl)ccc2n1` [Compound 44, 6-chloro-N-(4-(((5-chlorobenzofuran-2-yl)methyl)carbamoyl)piperidin-1-yl)quinoline-2-carboxamide] were, in that order, < 10 nM and 96.8%.
Consider `O=C(N[C@H]1CC[C@H](C(=O)NCc2cc3cc(Cl)ccc3o2)CC1)c1ccc2cc(Cl)ccc2n1` [Compound 43, 6-chloro-N-(trans-4-(((5-chlorobenzofuran-2-yl)methyl)carbamoyl)cyclohexyl)quinoline-2-carboxamide], for which the IC50 in assay [1] (setting [3]) is < 10 nM. Also, in assay [2] (setting [4]), the activity at 1 µM was 85.2%.
In the case of `O=C(COc1ccc(C(F)(F)F)cc1)N[C@H]1CC[C@H](C(=O)Nc2ccc3cc(Cl)ccc3n2)CC1` [Compound 35, trans-N-(6-chloroquinolin-2-yl)-4-(2-(4-(trifluoromethyl)phenoxy)acetamido)cyclohexanecarboxamide], in assay [1] (setting [3]), the IC50 was < 10 nM. Also, in assay [2] (setting [4]), the activity at 1 µM came to 82.9%.
The corresponding values for `O=C(COc1ccc(Cl)c(F)c1)N[C@H]1CC[C@H](C(=O)NCc2cc3cc(Cl)ccc3o2)CC1` [Compound 39, trans-4-(2-(4-chloro-3-fluorophenoxy)acetamido)-N-((5-chlorobenzofuran-2-yl)methyl)cyclohexanecarboxamide] are 10 to 100 nM and 170%.
`O=C(N[C@H]1CC[C@H](C(=O)Nc2ccc3cc(Cl)ccc3n2)CC1)C1CNc2cc(Cl)ccc2O1` (stereo partly drawn) [Compound 5, trans-6-chloro-N-(4-((6-chloroquinolin-2-yl)carbamoyl)cyclohexyl)-3,4-dihydro-2H-benzo[b][1,4]oxazine-2-carboxamide]: in assay [1] (setting [3]), the IC50 was < 10 nM. The activity at 1 µM in assay [2] (setting [4]) came to 195%.
The corresponding values for `O=C(CO[C@H]1C[C@@H](OC(F)(F)F)C1)NN1CCC(C(=O)Nc2ccc3cc(Cl)ccc3n2)CC1` [Compound 25, N-(6-chloroquinolin-2-yl)-1-(2-((1s, 3s)-3-(trifluoromethoxy)cyclobutoxy)acetamido)piperidine-4-carboxamide] are < 10 nM and 96.1%.
The corresponding values for `O=C(COc1ccc(Cl)c(F)c1)NN1CCC(C(=O)Nc2ccc3cc(Cl)ccc3n2)CC1` [Compound 16, 1-(2-(4-chloro-3-fluorophenoxy)acetamido)-N-(6-chloroquinolin-2-yl)piperidine-4-carboxamide] are < 10 nM and 133%.
